In patent publication US9593305B2, “Differentiation of pluripotent stem cells” (Janssen Biotech, Inc., priority 2008, dated 2017):

Legend:
[1] = system: human embryonic stem cells; experiment: Dose response of activin A and GDF-8, SOX17 intensity (Example 11, Table 11); assay type: cell-based; settings: Wnt3a day 1, three days
Method: Stock cultures of human embryonic stem cells (1-11 human embryonic stem cell line) were maintained in an undifferentiated, pluripotent state on reduced growth factor […]-coated dishes in MEF conditioned medium with passage on average every four days. Passage was performed by exposing cell cultures to a solution of 1 mg/ml dispase (Invitrogen, Cat #: 17105-041) for 5 to 7 minutes at 37° C. followed by rinsing the monolayer with MEF conditioned culture medium and gentle scraping to recover cell clusters. Clusters were centrifuged at low speed to collect a cell pellet and remove residual dispase. Cell clusters were split at a 1:3 or 1:4 ratio for routine maintenance culture or a 1:1 ratio for immediate assay. All human embryonic stem cell lines were maintained at passage numbers less than 50 and routinely evaluated for normal karyotypic phenotype and for absence of mycoplasma contamination.
Cell clusters used in the assay were evenly resuspended in MEF conditioned medium supplemented with 8 ng/ml bFGF and seeded onto reduced growth factor […]™-coated 96-well Packard VIEWPLATES (PerkinElmer; Cat #6005182) in volumes of 100 μl/well. MEF conditioned medium supplemented with 8 ng/ml bFGF was used for initial plating and expansion. Daily feeding was conducted by aspirating spent culture medium from each well and replacing with an equal volume of fresh medium. Plates were maintained at 37° C., 5% CO2 in a humidified box throughout the duration of assay.
The assay was initiated by aspirating the culture medium from each well and adding back an aliquot (100 μl) of test medium. Test conditions were performed in quadruplicate over a total three-day assay period, feeding on day 1 and day 2 by aspirating and replacing the medium from each well with fresh test medium. Two 12-channel polypropylene basins (Argos technologies, Inc, Cat #: B3135) were used to make the test media containing different concentrations of Activin A (PeproTech; Cat #120-14) or GDF-8 (R&D Systems, Cat #788-G8). Channels numbered 2 through 12 of each basin contained 1 ml assay medium composed of RPMI-1640 medium (Invitrogen; Cat #: 22400) supplemented with 2% Albumin Bovine Fraction V, Fatty Acid Free (FAF BSA) (MP Biomedicals, Inc; Cat #152401) and 8 ng/ml bFGF (PeproTech Inc.; Cat #: 100-18B), and with 20 ng/ml Wnt3a (R&D Systems; Cat #1324-WN/CF) added on day 1, omitted on day 2 and 3. Channel number 1 of each basin contained 1600 ng/ml Activin A or 1600 ng/ml GDF-8, diluted into the same assay medium. One ml of medium was transferred from channel number 1 to channel number 2 and mixed well. A fresh pipette tip was used to transfer one ml of medium from channel number 2 to channel number 3, followed by thorough mixing. The same procedure was repeated in sequence through channel number 11 for each respective basin. Channel number 12 of each basin contained medium without Activin A or GDF-8. By doing this, a series of two-fold test dilutions was created, containing Activin A or GDF-8 at concentrations ranging from 1.6 ng/ml to 1600 ng/ml, for addition to the respective assay wells.
At the conclusion of three days of culture, assay plates were washed once with PBS (Invitrogen; Cat #14190), fixed with 4% paraformaldehyde (Alexis Biochemical; Cat #ALX-350-011) at room temperature for 20 minutes, then washed three times with PBS and permeabilized with 0.5% Triton X-100 (Sigma; Cat #T8760-2) for 20 minutes at room temperature. Cells were washed again three times with PBS and blocked with 4% chicken serum (Invitrogen; Cat #16110082) in PBS for 30 minutes at room temperature. Primary antibody (goat anti-human SOX17; R&D Systems; Cat #AF1924) was diluted 1:100 in 4% chicken serum and added to each well for two hours at room temperature. After washing three times with PBS, Alexa Fluor 488 conjugated secondary antibody (chicken anti-goat IgG; Invitrogen; Cat #A21467) diluted 1:200 in PBS was added to each well. […]

[2] = system: H1 human embryonic stem cells; experiment: Definitive endoderm formation with TGF superfamily members, SOX17 and cell number (Example 14); assay type: cell-based; settings: growth factor with 20 ng/ml Wnt3a, three days
Method: Clusters were centrifuged at low speed to collect a cell pellet and remove residual dispase. […] All human embryonic stem cell lines were maintained at passage numbers less than 50 and routinely evaluated for normal karyotype and absence of mycoplasma.
Cells were washed again three times with PBS and blocked with 4% chicken serum (Invitrogen; Cat #16110082) in PBS for 30 minutes at room temperature. […] Plates were washed once with PBS and left in 100 μl/well PBS for imaging.

In the case of “GDF-8: growth factor GDF-8, also known as myostatin, member of the TGF-β family”, the “Normalized SOX17 Intensity, Average” value ([1]; 1.56 ng/ml growth factor) is reported as 0.00%, the “Normalized SOX17 Intensity, Average” value ([1]; 3.13 ng/ml growth factor) is reported as 0.10% and the “Normalized SOX17 Intensity, Average” value ([1]; 6.25 ng/ml growth factor) is reported as 0.70%. For the same substance, the “Normalized SOX17 Intensity, Average” value ([1]; 12.50 ng/ml growth factor) was 0.90%, the “Normalized SOX17 Intensity, Average” value ([1]; 25 ng/ml growth factor) was 5.10% and the “Normalized SOX17 Intensity, Average” value ([1]; 50 ng/ml growth factor) was 17.60%. For the same substance, the “Normalized SOX17 Intensity, Average” value ([1]; 100 ng/ml growth factor) was 32.70%, the “Normalized SOX17 Intensity, Average” value ([1]; 200 ng/ml growth factor) was 51.30% and the “Normalized SOX17 Intensity, Average” value ([1]; 400 ng/ml growth factor) was 72.20%. The “Normalized SOX17 Intensity, Average” value ([1]; 800 ng/ml growth factor) was 84.90%, the “Normalized SOX17 Intensity, Average” value ([1]; 1600 ng/ml growth factor) was 100.00% and the “EC50 (SOX17 intensity, GraphPad Prism)” value [1] was 0.1848 µg/mL. The “SOX17 expression in combination with Wnt3a” value [2] was “significant induction of SOX17 expression”.
For “Activin A: recombinant human activin A (PeproTech), TGF-beta family member”, the “Normalized SOX17 Intensity, Average” value ([1]; 1.56 ng/ml growth factor) was 0.10%, the “Normalized SOX17 Intensity, Average” value ([1]; 3.13 ng/ml growth factor) was 3.00% and the “Normalized SOX17 Intensity, Average” value ([1]; 6.25 ng/ml growth factor) was 18.40%. The “Normalized SOX17 Intensity, Average” value ([1]; 12.50 ng/ml growth factor) was 50.90%, the “Normalized SOX17 Intensity, Average” value ([1]; 25 ng/ml growth factor) was 73.10% and the “Normalized SOX17 Intensity, Average” value ([1]; 50 ng/ml growth factor) was 85.20%. The “Normalized SOX17 Intensity, Average” value ([1]; 100 ng/ml growth factor) was 90.70%, the “Normalized SOX17 Intensity, Average” value ([1]; 200 ng/ml growth factor) was 100.00% and the “Normalized SOX17 Intensity, Average” value ([1]; 400 ng/ml growth factor) was 100.00%. For the same substance, the “Normalized SOX17 Intensity, Average” value ([1]; 800 ng/ml growth factor) was 100.00%, the “Normalized SOX17 Intensity, Average” value ([1]; 1600 ng/ml growth factor) was 100.00% and the “EC50 (SOX17 intensity, GraphPad Prism)” value [1] was 0.0139 µg/mL. For the same substance, the “SOX17 expression in combination with Wnt3a” value [2] was “robust expression of SOX17”.
